SMILES strings stand for the structures. Where only a bound is given, the exact number is not on record here.

For series [1], the system named is HIV-1 infected cells (p24 production). As to the kind of experiment: extended time course assay, p24 and XTT. The settings on record: addition to culture after infection.
In series [2] the test system is HIV. As to the kind of experiment: HIV activity of co-isolated compounds. The series is classed as cell-based.
Another series concerns HIV-11118. Put plainly: in vitro anti-HIV activity, HIV-11118. The series is classed as cell-based, HIV-1.
Another series has as its system HIV-1 AZT^res. Put plainly: in vitro anti-HIV activity, AZT resistant HIV-1. The settings on record: Human immunodeficiency virus 1. The format is cell-based.
The test system of a further series is SIV MAC. Put plainly: in vitro antiviral activity, SIV. The format is cell-based.
Series [3] concerns HIV in fresh human peripheral blood mononuclear cells (PBMC's). As to the kind of experiment: in vitro anti-HIV activity in fresh human PBMC's. The format is cell-based, HIV-1. The settings on record: Human immunodeficiency virus 1, PBMC.
In a further series the test system is CALO/V901, P225S. As to the kind of experiment: microbe, parasite or virus in culture. The settings on record: Human immunodeficiency virus 1. The series is classed as cell-based, HIV-1.
The next series deals with DPS/Y181C. Put plainly: activity against HIV mutants: DPS/Y181C. The format is cell-based, HIV-1.
A further series deals with HEPT/P236L. As to the kind of experiment: activity against HIV mutants: HEPT/P236L. The series is classed as cell-based, HIV-1. Particulars: Human immunodeficiency virus 1.
Another series has as its system TiBO/A98G, V1081. As to the kind of experiment: activity against HIV mutants: TiBO/A98G, V1081. The format is cell-based, HIV-1. Particulars: Human immunodeficiency virus 1.
A further series concerns HIV-2. Put plainly: activity against HIV-2. The series is classed as cell-based.
A further series addresses integrase (Human immunodeficiency virus type 1 group M subtype B, UniProt P04585). As to the kind of experiment: integrase enzymatic activity. The format is biochemical, HIV.
Series [4] relates to HIV-1 attachment to cells (CEM-SS, PBMC's). Put plainly: virus attachment assay, p24 based. The format is cell-based.
Series [5] has as its system HIV. Put plainly: combination studies with AZT. The format is cell-based.
The next series is described as follows: solubility studies. The series is classed as physicochemical. How it is done:
It is very soluble in propylene glycol (PG), polyethylene glycol (PEG) 400 and soybean oil. These solvents may be useful in formulating cosolvents suitable for pharmaceutical applications. The ethanolic solutions has UV absorptions in the 290-300 nm range, useful for analytical work. Aqueous solutions for analytical work were prepared in HPCD and diluted with water to the required concentrations. The stock solutions were stable when incubated for 48 hours at 37° C. and when stored at room temperature.

The target in a further series is BSA (Bos taurus, UniProt P02769). As to the kind of experiment: interaction with BSA by fluorescence spectroscopy. The series is classed as binding, bovine. The settings on record: PMZ-1 in the μM range.
Sequence of BSA (P02769 25-607): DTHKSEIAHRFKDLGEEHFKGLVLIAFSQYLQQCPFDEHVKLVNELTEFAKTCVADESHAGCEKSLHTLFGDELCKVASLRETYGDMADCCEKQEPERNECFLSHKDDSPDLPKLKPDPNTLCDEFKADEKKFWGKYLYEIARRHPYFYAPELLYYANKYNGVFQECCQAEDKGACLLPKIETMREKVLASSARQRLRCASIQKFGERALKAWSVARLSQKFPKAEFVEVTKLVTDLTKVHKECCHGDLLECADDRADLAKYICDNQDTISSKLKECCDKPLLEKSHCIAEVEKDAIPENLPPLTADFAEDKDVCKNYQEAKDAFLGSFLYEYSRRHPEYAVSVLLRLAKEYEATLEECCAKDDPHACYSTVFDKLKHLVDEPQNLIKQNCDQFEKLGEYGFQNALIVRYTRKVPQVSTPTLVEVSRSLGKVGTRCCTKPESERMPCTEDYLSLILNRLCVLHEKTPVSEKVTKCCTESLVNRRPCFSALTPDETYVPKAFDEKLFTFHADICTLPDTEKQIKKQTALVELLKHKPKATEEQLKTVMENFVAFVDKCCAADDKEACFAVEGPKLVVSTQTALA
The next series is described as follows: hollow fibre studies. The format is in vivo. Particulars: intraperitoneally; preliminary.
For the next series, the system named is breast cancer. As to the kind of experiment: NCI 60 cell line panel, breast cancer. The format is cell-based.
Series [6] has as its system mutant viruses containing reverse transcriptase domain at codons 181, 139 and 100. Put plainly: activity against three other mutant viruses. The series is classed as cell-based, HIV.
The nature of series [7]: U1/TNF differential latent infection, XTT and p24. The settings on record: human, u1 cells.
The next series concerns U1 latent infection. Put plainly: U1/TNF differential latent infection, XTT and p24.
Another series deals with CEM-SS. Put plainly: growth inhibition of uninfected host cells in anti-HIV screen. Particulars: Homo sapiens.

For `Cc1ccnc2c1NC(=O)c1cccnc1N2C1CC1` [nevirapine, reference compound], the “time after infection within which addition is effective” value in [1] was ≤ 8 h.
`CC(C)=CCc1cc(C2COc3cc(O)cc(O)c3C2=O)cc(O)c1O` (stereo not drawn) [4382-39-2]: in the series on HIV [2], the HIV activity result was “devoid of HIV activity”.
As to `CC(C)=CCc1c(O)cc(O)c2c1OC(c1ccc(O)c(O)c1)CC2=O` (stereo not drawn) [4382-39-1], in the series on HIV [2], the HIV activity result was “devoid of HIV activity”.
Consider `COc1c(O)cc(C2COc3cc(O)cc(O)c3C2=O)cc1CC=C(C)C` (racemic) [PMZ-1], for which the EC50 in the series on HIV-11118 (Human immunodeficiency virus 1, HIV-1IIIB, NCI AIDS anti-viral screen) was 0.2 µM; in the series on HIV-11118 (Human immunodeficiency virus 1, HIV-11118), 0.058 µM; with HIV-1 AZT^res, 0.16 µM; in series [3] (PMBC's) it was 0.6 µM; in [3] (fresh human PBMC's) it was < 1 µM; with CALO/V901, P225S, 0.1 µM. Also, the 50% effective concentration (EC50) is 1.39 µM with DPS/Y181C (Human immunodeficiency virus 1, DPS/Y181C); ~1 µM with DPS/Y181C (Human immunodeficiency virus 1, mutant Y181); > 5 µM in the series with HEPT/P236L; > 5 µM with TiBO/A98G, V1081. In addition, the “activity against SIV” value in the series on SIV MAC is listed as “weak activity”. Further, in the series on HIV-2, the “activity against HIV-2” value is recorded as “weak activity”. In addition, the IC50 against integrase was 40 µM; with CEM-SS, 38 µM; in the series with CEM-SS (cell growth, HIV-1 AZT^res test), 42 µM; with CEM-SS (cell growth, HIV-1 AZT^sen test) it was 35 µM; in the series with CEM-SS (cell growth, HIV-1 DPS test) it was 42 µM; in the series on CEM-SS (cell growth, HIV-1 N119 test) it was 60 µM. In addition, the IC50 in the series with CEM-SS (cell growth, HIV-1RF test) turned out to be 20 µM; in the series with CEM-SS (cell growth, HIV-1 ROD test), 28 µM; in the series on CEM-SS (cell growth, HIV-11118 test), 46 µM; in the series on CEM-SS (cell growth, SIV MAC test) it was 35 µM. For the same compound, the “effect on attachment of virons to cells” value in [4] is “no effect”. Also, in series [4] (at 100 μM, CEM-SS cells), the “HIV-1 Attachment to CEM-SS cells” value is “No inhibition”. Further, the “anti-viral combination effect with AZT” value in the series with HIV [5] is “anti-viral synergistic effects”. The “solubility in 40% HPCD” value in “solubility studies” (40% hydroxypropyl beta-cyclodextrin) is on record as “soluble”. Besides, in “solubility studies” (ethanol), the solubility in ethanol was > 1000 µg/mL. The “solubility in PG, PEG 400 and soybean oil” value in “solubility studies” (propylene glycol, polyethylene glycol 400, soybean oil) is recorded as “very soluble”. Moreover, the solubility in water entry in “solubility studies” (water) is given as “poorly soluble”. Also, the “quenching of fluorescence of BSA” value on BSA was “concentration dependent quenching”. In addition, the “activity in hollow fibre studies” value in “hollow fibre studies” is reported as “active”. Further, in the series on breast cancer, the “activity against breast cancer” value is “good activity”. The “activity against three other mutant viruses” value in [6] is on record as “some activity”. The MNTC in series [7] was 1000 nM. In addition, in the series with U1 latent infection (XTT), the “U1/TNF differential latent infection XTT: toxic concentration” value was ≤ 3.16 µM. In addition, in the series with U1 latent infection (p24), the “U1/TNF differential latent infection p24 production” value is recorded as “no inhibition of p24 production”.

Source of the values: US6258839A, “Isolation of naturally occuring isoflavanone and some clinical uses thereof” (priority 1997, dated 2001).
